Source: patent publication US20230058634A1, “PREVENTION OF PLATELET ACTIVATION AND CELL DIFFERENTIATION DURING THE PROCESSING OF BLOOD AND BLOOD-RELATED COMPOSITIONS” (GPB Scientific, Inc., priority 2020, published 2023)

Assays:
[1] = test system: CD45+ cells; assay: Cell viability in apheresis product by flow cytometry (CD45-PerCP and 7-AAD; % CD45+ cells); type: cell-based; conditions: FIG. 7 lower panel; 14 mM Citrate, overnight; A23187 at 4 micromolar in DMEM media
Procedure: Cell viability may be determined by flow cytometry using CD45-PerCP and 7-AAD.
FIG. 7: An apheresis product is collected into 14 mM Citrate (ACD-A). […] The calcium ionophore A23187 is used at 4 micromolar in apheresis material resuspended in DMEM media. […] Determination of singlets and aggregates may be done by flow cytometry using side and forward scatter of the CD45+ cell population. Cell viability is determined as the % CD45+ cells.

[2] = test system: neutrophils; conditions: cited from earlier work
[3] = test system: CD45+ cell population; assay: Singlets and aggregates in apheresis product by flow cytometry (side and forward scatter); type: cell-based; conditions: FIG. 7 top panel; 14 mM Citrate (ACD-A), overnight, low/medium/high concentrations, compared to control with no inhibitors
[4] = test system: cultured cells; conditions: at micromolar concentrations; cited from earlier work
[5] = test system: cell aggregates; assay: Cell aggregates in apheresis product after 24 h, glass slide under microscope; type: cell-based; conditions: FIG. 10, 14 mM Citrate, GSK484 10 micromolar, DTPA 10 micromolar, Tirofiban 2.5 micrograms/ml
Procedure: FIG. 9: An apheresis product is collected in 14 mM Citrate and divided into two different tubes—one with no further addition and a second tube with additional citrate for a final concentration of 28 mM (2X ACD-A). The tubes are left overnight at room temperature under rotation. After 24 h, aliquots of the tubes are spotted on a glass slide and are analyzed under the microscope for the presence of cell aggregates.
FIG. 10: An apheresis product is collected in 14 mM Citrate (ACD-A) and aliquots are taken and incubated with the different inhibitors, or in combination, in different tubes for 24 h. The tubes are left under rotation at room temperature. After 24 h, aliquots of the different tubes are spotted on a glass slide and are analyzed under a microscope for the presence of cell aggregates.

[6] = test system: granulocytes; conditions: incubation; cited from earlier work

For `CNc1ccc2oc(C[C@H]3O[C@@]4(CC[C@H]3C)O[C@H]([C@H](C)C(=O)c3ccc[nH]3)[C@H](C)C[C@H]4C)nc2c1C(=O)O` [A23187], the “viability (% CD45+ cells)” value [1] was “affect viability”.

For `CCCCC(CC)CNC(=N)NC(=N)NCCCCCCNC(=N)NC(=N)NCC(CC)CCCC` (stereo not drawn) [Alexidine], the “NETosis after 2 h of incubation” value ([2]; after 2 h of incubation) is given as “induces NETosis”, the “NET formation induced by ionomycin” value ([2]; in neutrophils) is given as “inhibits NET formation” and the “basal level of netosis” value ([2]; without an increase of cytosolic calcium) is given as “inhibits the basal level of netosis”.

In the case of `O=C(O)CN(CCN(CC(=O)O)CC(=O)O)CCN(CC(=O)O)CC(=O)O` [DTPA, diethylenetriaminepentacetic acid], the “aggregation (singlets %)” value [3] is listed as “very effective at all concentrations tested” and the “apoptosis and cell death” value [4] is listed as “induce apoptosis and cell death”.

In the case of `COc1cc(C(=O)N2CC[C@@H](O)[C@@H](N)C2)cc2nc(-c3cc4ccccc4n3CC3CC3)n(C)c12` [GSK484], the “aggregation (singlets %)” value [3] was “inhibit aggregation in a dose dependent manner”.

With `S=C=Nc1cccc(NC(=S)NCCCCNC(=S)Nc2cccc(N=C=S)c2)c1` [MRS2578] the “aggregation (singlets %)” value [3] was “inhibit aggregation in a dose dependent manner”.

In the case of `c1ccc(CN(CCN(Cc2ccccn2)Cc2ccccn2)Cc2ccccn2)nc1` [TPEN, N,N,N′, N′-tetrakis(2-pyridylmethyl)ethylenediamine], the “apoptosis and cell death” value [4] is given as “induce apoptosis and cell death”.

For `CCCCS(=O)(=O)N[C@@H](Cc1ccc(OCCCCC2CCNCC2)cc1)C(=O)O` [Tirofiban, tirofiban], the “formation of cell aggregates” value [5] was “prevents the formation of cell aggregates”.

In the case of `C[C@@H](N)[C@H]1CC[C@H](C(=O)Nc2ccncc2)CC1` [Y-27632], the “NET formation induced by PMA and other challenges” value ([2]; pre-treatment) is given as “inhibits NET formation” and the chemotaxis of granulocytes [6] is given as “blocked the chemotaxis”.
